This note sets out measurements from US20250059205A1, “Heterocyclic Compounds and Methods of Use” (AMGEN INC., priority 2021, published 2025).

Assay [1] deals with His-tagged KRAS G12D protein (Homo sapiens, UniProt P01116, G12D). Briefly: KRAS G12D TR-FRET Assay. It is filed as binding.
Assay [2] has as its target GDP-bound KRAS protein (aa 1-169), containing both G12D and C118A amino acid substitutions (Homo sapiens, UniProt P01116, C118A/G12D). Briefly: KRAS G12D Coupled Nucleotide Exchange Assay. Type of assay: biochemical. The following applies: 2 h compound pre-incubation. The protocol:
Following compound pre-incubation, purified SOS protein (aa 564-1049) and GTP (Roche 10106399001) were added to the assay wells and incubated for an additional 30 min. […] The assay plates were then read on a PerkinElmer EnVision Multilabel Reader, using AlphaScreen® technology, and data were analyzed using a 4-parameter logistic model to calculate IC50 values.

Assay [3] relates to Phosphorylation of ERK1/2 in AsPC-1 cells. Briefly: Phospho-ERK1/2 MSD Assay (AsPC-1 cells). It is filed as cell-based. The following applies: Homo sapiens, ASPC1, 2 h, 2 hours treatment, read-out: p-ERK (AsPC-1 cells) IC50. The method, boiled down: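 Read-out: MSD electrochemiluminescent detection of phosphorylated ERK1/2 in whole-cell lysates, fitted to a 4-parameter logistic curve for IC50. Prior to lysis, AsPC-1 cells (25,000 per well) received a 2 h compound dose-response at 37 °C.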

For assay [4], the system named is Phosphorylation of ERK1/2 in A-427 cells. Briefly: Phospho-ERK1/2 MSD Assay (A-427 cells). Conditions: Homo sapiens, A-427, 2 h, 2 h treatment, read-out: p-ERK (A427 cells) IC50. It is filed as cell-based. The procedure: A-427 (ATCC® HTB-53™) cells were cultured in RPMI 1640 Medium (ThermoFisher Scientific 11875093) containing 10% fetal bovine serum (ThermoFisher Scientific 16000044) and 1× penicillin-streptomycin-glutamine (ThermoFisher Scientific 10378016). Sixteen hours prior to compound treatment, A-427 cells were seeded in 96-well cell culture plates at a density of 25,000 cells/well and incubated at 37° C., 5% CO2. A compound dose-response titration was diluted in growth media, added to appropriate wells of a cell culture plate, and then incubated at 37° C., 5% CO2 for 2 h. Following compound treatment, cells were washed with ice-cold Dulbecco's phosphate-buffered saline, no Ca^2+ or Mg^2+ (ThermoFisher Scientific 14190144), and then lysed in RIPA buffer (50 mM Tris-HCl pH 7.5, 1% Igepal, 0.5% sodium deoxycholate, 150 mM NaCl, and 0.5% sodium dodecyl sulfate) containing protease inhibitors (Roche 4693132001) and phosphatase inhibitors (Roche 4906837001). Phosphorylation of ERK1/2 in compound-treated lysates was assayed using Phospho-ERK1/2 Whole Cell Lysate kits (Meso Scale Discovery K151DWD) according to the manufacturer's protocol. Assay plates were read on a Meso Scale Discovery Sector Imager 6000, and data were analyzed using a 4-parameter logistic model to calculate IC50 values.

Structures are written as SMILES. Where only a bound is given, the exact number is not on record here.

GDP-bound KRAS protein (aa 1-169), containing both G12D and C118A amino acid substitutions, sequence (P01116 1-169 isoform P01116-2 G12D/C118A): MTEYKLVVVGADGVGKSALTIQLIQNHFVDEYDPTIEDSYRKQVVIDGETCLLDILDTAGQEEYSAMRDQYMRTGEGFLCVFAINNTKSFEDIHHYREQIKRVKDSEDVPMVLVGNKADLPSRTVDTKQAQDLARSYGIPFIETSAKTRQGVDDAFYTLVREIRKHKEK
His-tagged KRAS G12D protein, sequence (P01116 1-188 isoform P01116-2 G12D): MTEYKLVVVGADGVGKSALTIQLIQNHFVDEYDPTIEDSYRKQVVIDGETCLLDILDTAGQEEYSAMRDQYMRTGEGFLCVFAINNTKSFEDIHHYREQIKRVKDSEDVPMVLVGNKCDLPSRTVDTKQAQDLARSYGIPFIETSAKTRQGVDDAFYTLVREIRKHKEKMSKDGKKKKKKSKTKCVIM

For `N#Cc1cc2c(N3C[C@H]4CC[C@@H](C3)N4)nc(OC[C@@]34CCCN3C[C@H](F)C4)nc2c(F)c1-c1cc(O)cc2ccccc12` [Example 219, 4-((1R,5S)-3,8-Diazabicyclo[3.2.1]octan-3-yl)-8-fluoro-2-(((2R,7aS)-2-fluorotetrahydro-1H-pyrrolizin-7a(5H)-yl)methoxy)-7-(3-hydroxynaphthalen-1-yl)quinazoline-6-carbonitrile], the figures for the IC50 in assay [1], in assay [3] and in assay [4] were 1 nM, 531 nM and 92 nM, respectively. Further, the “Avg 2 h Coupled Exchange IC50” value in assay [2] turned out to be 2 nM.

For the compound `CCc1c(F)ccc2cc(O)cc(-c3ccc4c(N5C[C@H]6CC[C@@H](C5)N6)cc(OC[C@@]56CCCN5C[C@H](F)C6)nc4c3F)c12` [Example 211, 4-(4-((1R,5S)-3,8-Diazabicyclo[3.2.1]octan-3-yl)-8-fluoro-2-(((2R,7aS)-2-fluorotetrahydro-1H-pyrrolizin-7a(5H)-yl)methoxy)quinolin-7-yl)-5-ethyl-6-fluoronaphthalen-2-ol], the values for the half-maximal inhibitory concentration (IC50) in assay [1], in assay [3] and in assay [4] were 18 nM, 8750 nM and 6290 nM, respectively. Moreover, the “Avg 2 h Coupled Exchange IC50” value in assay [2] is 29 nM.

On to `Oc1cc(-c2c(F)cc3c(N4[C@@H]5CC[C@H]4CNC5)nc(OC[C@@]45CCCN4C[C@H](F)C5)nc3c2F)c2ncccc2c1` [Example 27, 8-(4-((1R,5S)-3,8-diazabicyclo[3.2. 1]octan-8-yl)-6,8-difluoro-2-(((2R,7aS)-2-fluorotetrahydro-1H-pyrrolizin-7a(5H)-yl)methoxy)quinazolin-7-yl)quinolin-6-ol], for which the IC50 – broadly, the concentration needed to halve the response being measured – was determined as 47 nM in assay [1], 5230 nM in assay [3] and 865 nM in assay [4]. In addition, in assay [2], the “Avg 2 h Coupled Exchange IC50” value turned out to be 21 nM.

In the case of `Nc1ccc(C2CC2)c(-c2ccc3c(N4C[C@H]5CC[C@@H](C4)N5)nc(OC[C@@]45CCCN4C[C@H](F)C5)nc3c2F)n1` [Example 224, 6-(4-((1R,5S)-3,8-diazabicyclo[3.2.1]octan-3-yl)-8-fluoro-2-(((2R,7aS)-2-fluorotetrahydro-1H-pyrrolizin-7a(5H)-yl)methoxy)quinazolin-7-yl)-5-cyclopropylpyridin-2-amine], the IC50 was 274 nM in assay [1], more than 10000 nM in assay [3] and 7620 nM in assay [4]. Also, the “Avg 2 h Coupled Exchange IC50” value in assay [2] worked out at 41 nM.

In the case of `Cc1c(Cl)cc2[nH]ncc2c1-c1ccc2c(N3C[C@H]4CC[C@@H](C3)N4)nc(OC[C@@]34CCCN3C[C@H](F)C4)nc2c1F` [Example 192, 4-((1R,5S)-3,8-Diazabicyclo[3.2.1]octan-3-yl)-7-(6-chloro-5-methyl-1H-indazol-4-yl)-8-fluoro-2-(((2R,7aS)-2-fluorotetrahydro-1H-pyrrolizin-7a(5H)-yl)methoxy)quinazoline], the results for the 50% inhibitory concentration (IC50) in assay [1], in assay [3] and in assay [4] were 4 nM, 532 nM and 150 nM, respectively. In addition, the “Avg 2 h Coupled Exchange IC50” value in assay [2] turned out to be 2 nM.

With `CCc1c(F)ccc2cc(O)cc(-c3c(F)cc4c(N5CC6CCC(C5)N6)nc(OCC56CCCN5C[C@H](F)C6)nc4c3F)c12` (atropisomer, axis not shown; (M)) [Example 232, (M)-4-(4-((1R,5S)-3,8-diazabicyclo[3.2.1]octan-3-yl)-6,8-difluoro-2-(((2R,7aS)-2-fluorotetrahydro-1H-pyrrolizin-7a(5H)-yl)methoxy)quinazolin-7-yl)-5-ethyl-6-fluoronaphthalen-2-ol], the IC50 in assay [1] was 1 nM; in assay [3], 8 nM; in assay [4], 3 nM. Moreover, in assay [2], the “Avg 2 h Coupled Exchange IC50” value was 2 nM.

As for `Oc1cc(-c2cc3nc(OC[C@@]45CCCN4C[C@H](F)C5)nc(N4[C@@H]5CC[C@H]4CNC5)c3cc2F)c2ccccc2c1` [Example 53, 4-(4-((1R,5S)-3,8-diazabicyclo[3.2. 1]octan-8-yl)-6-fluoro-2-(((2R,7aS)-2-fluorotetrahydro-1H-pyrrolizin-7a(5H)-yl)methoxy)quinazolin-7-yl)naphthalen-2-ol], the results for the concentration for half-maximal inhibition (IC50) in assay [1], in assay [3] and in assay [4] were 16 nM, 919 nM and 608 nM, respectively. In assay [2], the “Avg 2 h Coupled Exchange IC50” value was 3 nM.

For the compound `Oc1cc(Cl)c(C2CC2)c(-c2ccc3c(N4C[C@H]5CC[C@@H](C4)N5)nc(OC[C@@]45CCCN4C[C@H](F)C5)nc3c2F)c1` [Example 145, 3-(4-((1R,5S)-3,8-diazabicyclo[3.2.1]octan-3-yl)-8-fluoro-2-(((2R,7aS)-2-fluorotetrahydro-1H-pyrrolizin-7a(5H)-yl)methoxy)quinazolin-7-yl)-5-chloro-4-cyclopropylphenol], the results for the IC50 in assay [1], in assay [3] and in assay [4] were 2 nM, 39 nM and 11 nM, respectively. Also, in assay [2], the “Avg 2 h Coupled Exchange IC50” value was 3 nM.

In the case of `CCc1c(F)ccc2cc(O)cc(-c3c(F)cc4c(N5C[C@@H]6CC[C@H]5CN6)nc(OC[C@@]56CCCN5C[C@H](F)C6)nc4c3F)c12` [Example 93, 4-(4-((1S,4S)-2,5-diazabicyclo[2.2. 2]octan-2-yl)-6,8-difluoro-2-(((2R,7aS)-2-fluorotetrahydro-1H-pyrrolizin-7a(5H)-yl)methoxy)quinazolin-7-yl)-5-ethyl-6-fluoronaphthalen-2-ol], the IC50 came out at 5 nM in assay [1], 9 nM in assay [3] and 6 nM in assay [4]. Moreover, in assay [2], the “Avg 2 h Coupled Exchange IC50” value is 6 nM.

As for `CCc1c(F)ccc2cc(O)cc(-c3ccc4c(N5CC6CCC(C5)N6)nc(OC[C@@]56CCCN5C[C@H](F)C6)nc4c3)c12` [Example 111], the IC50 in assay [1] was found to be 2 nM; in assay [3], 51 nM; in assay [4], 28 nM. Moreover, the “Avg 2 h Coupled Exchange IC50” value in assay [2] is 1 nM.

Consider `N#Cc1cccc2cccc(-c3c(F)cc4c(N5C[C@H]6CC[C@@H](C5)N6)nc(OC[C@@]56CCCN5C[C@H](F)C6)nc4c3F)c12` [Example 60, 8-(4-((1R,5S)-3,8-diazabicyclo[3.2. 1]octan-3-yl)-6,8-difluoro-2-(((2R,7aS)-2-fluorotetrahydro-1H-pyrrolizin-7a(5H)-yl)methoxy)quinazolin-7-yl)-1-naphthonitrile], for which the 50% inhibitory concentration (IC50) in assay [1] stood at 8 nM; in assay [3], 418 nM; in assay [4], 530 nM. Moreover, the “Avg 2 h Coupled Exchange IC50” value in assay [2] amounted to 4 nM.

Take `CCc1c(F)ccc2cc(O)cc(-c3c(F)cc4c(N5[C@@H]6CCC[C@H]5CNC6)nc(OC[C@@]56CCCN5C[C@H](F)C6)nc4c3F)c12` [Example 172, 4-(4-((1R,5S)-3,9-diazabicyclo[3.3.1]nonan-9-yl)-6,8-difluoro-2-(((2R,7aS)-2-fluorotetrahydro-1H-pyrrolizin-7a(5H)-yl)methoxy)quinazolin-7-yl)-5-ethyl-6-fluoronaphthalen-2-ol]: the IC50 in assay [1] was 85 nM; in assay [3] it was 2920 nM; in assay [4], 5430 nM. For the same compound, the “Avg 2 h Coupled Exchange IC50” value in assay [2] was found to be 36 nM.

As to `Cc1ccc2[nH]nc(N)c2c1-c1ccc2c(N3C[C@H]4CC[C@@H](C3)N4)nc(OC[C@@]34CCCN3C[C@H](F)C4)nc2c1F` [Example 226, 4-(4-((1R,5S)-3,8-diazabicyclo[3.2.1]octan-3-yl)-8-fluoro-2-(((2R,7aS)-2-fluorotetrahydro-1H-pyrrolizin-7a(5H)-yl)methoxy)quinazolin-7-yl)-5-methyl-1H-indazol-3-amine], the IC50 in assay [1] was 44 nM; in assay [3], more than 10000 nM; in assay [4], more than 10000 nM. In addition, the “Avg 2 h Coupled Exchange IC50” value in assay [2] is 7 nM.
